Source: patent US9388147B2 (Receptos, Inc., priority 2009, dated 2016)

What was measured:
S1P1 W269L = target: T1, S1P1 W269L (Homo sapiens, UniProt P21453, W269L); test: Phosphorylated-ERK1/2 In Cell Western, S1P1 W269L mutant; assay type: cell-based
T1 construct: expressed in transfected cells; host or cells: CHOK1
Description: CHOK1 cells were transfected using Fugene (Roche). Stably expressing mixed pools were selected with 2 mg/ml G418. Expression of functional S1P1/EDG1 receptor was confirmed by cell surface FACS with a S1P1 antibody (R&D Systems, clone 218713). Stable pools were seeded at 40,000 cells/well in a clear bottom 96-well tray, and incubated at 37° C. in 5% CO2 for 18 hrs. Cells were serum-starved in FreeStyle 293 medium (Invitrogen) for 4-6 h, then incubated for 5 min with a dose response of compound, in duplicate. Cells were fixed with 4% paraformaldehyde for 20 min, permeabilized with 0.1% Triton X-100 in PBS (4×5 min washes) and blocked for 1 h in Odyssey Blocking Buffer (LI-COR). All incubations were at room temperature. Cells were incubated for 18 h at 4° C. in Rabbit anti-Phospho-ERK1/2 (Cell Signaling #4377) and Mouse anti-ERK1/2 (Cell Signaling #9107) both diluted 1:800 in Odyssey Blocking Buffer. Plates were washed with 0.1% Tween-20 in PBS and then incubated with Odyssey Blocking Buffer containing IRDye 680-labeled goat anti-rabbit antibody (#926-32221; diluted 1/500) and IRDye 800CW-labeled goat anti-mouse antibody (#926-32210; diluted 1/1000). Plates were washed with 0.1% Tween-20 in PBS, all liquid was removed from the wells and the plates were scanned using a LICOR Odyssey scanner. […] Data was analyzed by non-linear regression using GraphPad Prism to determine the EC50 of binding. […]

S1P1 R120A/E121A = target: T2, S1P1 R120A/E121A (Homo sapiens, UniProt P21453, E121A/R120A); test: Phosphorylated-ERK1/2 In Cell Western, S1P1 R120A/E121A mutant in CHOK1 cells; assay type: cell-based
T2 construct: expressed in transfected cells; host or cells: CHOK1
T2 sequence (P21453 whole entry R120A/E121A): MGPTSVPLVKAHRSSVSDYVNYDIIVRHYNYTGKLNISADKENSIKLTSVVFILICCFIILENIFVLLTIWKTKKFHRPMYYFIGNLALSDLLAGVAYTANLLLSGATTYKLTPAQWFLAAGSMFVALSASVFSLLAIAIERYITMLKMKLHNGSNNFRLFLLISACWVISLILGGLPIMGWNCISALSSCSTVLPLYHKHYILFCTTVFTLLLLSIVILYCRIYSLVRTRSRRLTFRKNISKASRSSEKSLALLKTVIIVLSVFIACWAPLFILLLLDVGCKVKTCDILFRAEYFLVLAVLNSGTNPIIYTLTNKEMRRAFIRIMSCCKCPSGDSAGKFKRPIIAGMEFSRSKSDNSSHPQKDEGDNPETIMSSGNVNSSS
Description: A. Quick-change mutagenesis with PfuTurbo DNA polymerase (Stratagene) was conducted using S1P1/pcDNA3.1 (Missouri S&T cDNA Resource Centre) as the template. Primers were as follows: […]
PCR conditions were 15 cycles with the following parameters: 95° C. 30 sec, 58° C. 30 sec, 68° C. for 60 sec. All constructs were sequence verified.
CHOK1 cells were transfected using Fugene (Roche). Stably expressing mixed pools were selected with 2 mg/ml G418. Expression of functional S1P1/EDG1 receptor was confirmed by cell surface FACS with a S1P1 antibody (R&D Systems, clone 218713). Stable pools were seeded at 40,000 cells/well in a clear bottom 96-well tray, and incubated at 37° C. in 5% CO2 for 18 hrs. Cells were serum-starved in FreeStyle 293 medium (Invitrogen) for 4-6 h, then incubated for 5 min with a dose response of compound, in duplicate. Cells were fixed with 4% paraformaldehyde for 20 min, permeabilized with 0.1% Triton X-100 in PBS (4×5 min washes) and blocked for 1 h in Odyssey Blocking Buffer (LI-COR). All incubations were at room temperature. Cells were incubated for 18 h at 4° C. in Rabbit anti-Phospho-ERK1/2 (Cell Signaling #4377) and Mouse anti-ERK1/2 (Cell Signaling #9107) both diluted 1:800 in Odyssey Blocking Buffer. Plates were washed with 0.1% Tween-20 in PBS and then incubated with Odyssey Blocking Buffer containing IRDye 680-labeled goat anti-rabbit antibody (#926-32221; diluted 1/500) and IRDye 800CW-labeled goat anti-mouse antibody (#926-32210; diluted 1/1000). Plates were washed with 0.1% Tween-20 in PBS, all liquid was removed from the wells and the plates were scanned using a LICOR Odyssey scanner. The phospho-ERK1/2 signal was normalized to the ERK1/2 signal. Data was analyzed by non-linear regression using GraphPad Prism to determine the EC50 of binding.

T1 sequence (P21453 whole entry W269L): as the sequence (P21453 whole entry R120A/E121A) above, with A120R, A121E, W269L counted along it

CC(C)Oc1ccc(-c2nc(-c3cccc4c3CC[C@@H]4N)no2)cc1C#N [Compound 50, (S)-5-(3-(1-amino-2,3-dihydro-1H-inden-4-yl)-1,2,4-oxadiazol-5-yl)-2-isopropoxy-benzonitrile]
Effect of mutation on binding of compound (in words) (S1P1 W269L): abolishes binding | Effect of mutation on binding of compound (in words) (S1P1 R120A/E121A; S1P1 R120A/E121A): has no influence on the binding | Fold change in EC50 compared to wild type S1P1 (S1P1 R120A/E121A; S1P1 variant R120A/E121A, phospho-ERK1/2): 2
